{
  "source": "patent US20080051378A1",
  "about": "“Combinations Comprising Antimuscarinic Agents and Corticosteroids” (priority 2004, published 2008)",
  "tested_on": "ovoalbumin-sensitized guinea-pig isolated tracheal rings",
  "experiment": "Inhibition of the antigen (ovoalbumin)-induced contraction in ovoalbumin-sensitized guinea-pig isolated tracheal rings",
  "settings": "for CONTRACTILE RESPONSE TO OVOALBUMIN (in mg) (mean ± sem): vehicle 886 ± 108 mg",
  "experimental": "Male Dunkin-Hartley guinea-pigs (weighing 380-420 g) from Harlan Ibérica (St. Feliu de Codines, Spain) are used. They are housed, with free access to food and water, in rooms kept at 22±2° C. under a 12 hours light-dark cycle until the start of the experiment.\nThe animals are sensitised by means of two sessions of aerosolization with a solution of 5 mg/ml of ovoalbumin on days zero and 7 of the study. The aerosolization procedure consists of two 30-s nebulisations (Efbe air brush apparatus) with an interval of 5 minutes with animals maintained in a plexiglass box for 10 minutes since the beginning of the procedure.\nBetween days 14 to 20 from the beginning of the experiment the animals are euthanised and the tracheal tissue is removed. A single tracheal ring is excised and suspended in an organ bath containing Krebs solution. Once attached to a force isometric transducer, it is submitted to a basal resting tension of 1 g, equilibrated with a mixture a 5% CO2 in O2 and maintained at 37° C.\nThe preparations are allowed to equilibrate for a period of not less than 60 minutes and then the vehicle or the compound(s) to be tested are added to the bath. The corticosteroids (if present) are added first, and, after an incubation period of 45 minutes, the M3 antagonist are subsequently added allowing the system to stand for another 15 minutes. At this moment ovoalbumin is added (at a final concentration in the bath of 10 μg/ml) to elicit the contractile response which is measured immediately.\nThe contractile responses measured with a force isometric transducer are expressed in mg.",
  "key": {"[1]": {"settings": "each compound 10 μM in organ bath, corticosteroid added 45 min before, M3 antagonist 15 min before ovoalbumin 10 μg/ml"}},
  "data": [
    {"smiles": "C[C@H]1C[C@H]2[C@@H]3CCC4=CC(=O)C=C[C@]4(C)[C@@]3(Cl)[C@@H](O)C[C@]2(C)[C@@]1(O)C(=O)CO", "note": "[BECLOMETHASONE, beclomethasone]", "values": [
      {"measurement": "CONTRACTILE RESPONSE TO OVOALBUMIN (in mg) (mean ± sem)", "setting": "[1]", "value": "778 ± 83", "unit": "mg"},
      {"measurement": "% INHIBITION OF THE CONTRACTILE RESPONSE", "setting": "each compound 10 μM in organ bath, corticosteroid added 45 min before, M3 antagonist 15 min before ovoalbumin 10 μg/ml, versus vehicle", "value": 12, "unit": "%"},
      {"measurement": "inhibition of the contractile response, comparison in words", "setting": "text summary of Table 1 and FIG. 1, 10 μM each", "value": "smaller effect"}
    ]},
    {"smiles": "CCCC1O[C@@H]2C[C@H]3[C@@H]4CCC5=CC(=O)C=C[C@]5(C)[C@H]4[C@@H](O)C[C@]3(C)[C@]2(C(=O)CO)O1", "note": "(some centres unmarked) [BUDESONIDE, budesonide]", "values": [
      {"measurement": "inhibition at 10 µM", "setting": "Cavia porcellus, each compound 10 μM in organ bath, corticosteroid added 45 min before, M3 antagonist 15 min before ovoalbumin 10 μg/ml, versus vehicle, read-out: % INHIBITION OF THE CONTRACTILE RESPONSE", "value": 51, "unit": "%"},
      {"measurement": "CONTRACTILE RESPONSE TO OVOALBUMIN (in mg) (mean ± sem)", "setting": "[1]", "value": "435 ± 68", "unit": "mg"}
    ]}
  ]
}
